According to patent publication US5817670A, “Naphthyridine derivatives and pharmaceutical compositions thereof” (Yamanouchi Pharmaceutical Co., Ltd., priority 1994, dated 1998):

Columns and labels:
[1] = biological target: T1, type II phosphodiesterase (Rattus norvegicus, UniProt Q01062); assay: Phosphodiesterase inhibition activity (in vitro), Type II; type: biochemical; conditions: Type II phosphodiesterase column
T1 construct: purified from rat heart muscle cells; from tissue; host or cells: rat heart, soluble fraction, Q Sepharose
T1 sequence (Q01062 1-928): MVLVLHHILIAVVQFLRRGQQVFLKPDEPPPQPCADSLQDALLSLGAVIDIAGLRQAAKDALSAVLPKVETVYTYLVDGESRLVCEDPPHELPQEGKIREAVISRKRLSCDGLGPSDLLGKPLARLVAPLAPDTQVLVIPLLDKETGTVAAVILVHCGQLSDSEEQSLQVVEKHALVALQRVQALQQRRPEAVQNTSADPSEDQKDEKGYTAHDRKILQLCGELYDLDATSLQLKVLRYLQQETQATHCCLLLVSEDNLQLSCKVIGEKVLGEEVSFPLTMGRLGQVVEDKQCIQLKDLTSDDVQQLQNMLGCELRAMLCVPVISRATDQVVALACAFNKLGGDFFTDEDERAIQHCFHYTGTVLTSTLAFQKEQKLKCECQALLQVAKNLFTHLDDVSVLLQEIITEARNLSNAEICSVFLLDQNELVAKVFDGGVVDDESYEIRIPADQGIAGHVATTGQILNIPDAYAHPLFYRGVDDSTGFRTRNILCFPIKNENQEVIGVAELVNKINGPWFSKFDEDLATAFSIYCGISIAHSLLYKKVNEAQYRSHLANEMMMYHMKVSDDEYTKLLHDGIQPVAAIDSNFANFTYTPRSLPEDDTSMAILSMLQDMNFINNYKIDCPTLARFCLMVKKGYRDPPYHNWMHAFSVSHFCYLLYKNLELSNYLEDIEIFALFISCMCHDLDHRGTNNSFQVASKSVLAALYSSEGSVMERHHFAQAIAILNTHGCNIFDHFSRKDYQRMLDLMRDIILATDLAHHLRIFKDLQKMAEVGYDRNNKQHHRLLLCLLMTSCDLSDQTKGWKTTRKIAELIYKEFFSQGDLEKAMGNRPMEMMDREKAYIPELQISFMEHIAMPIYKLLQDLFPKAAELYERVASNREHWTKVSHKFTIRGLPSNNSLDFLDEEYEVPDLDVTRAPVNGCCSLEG
Description: (§1) (A) In order to evaluate selectivity of the compounds of the present invention for type IV phosphodiesterase, types I, II, III and V phosphodiesterase isozymes were purified in the following manner.
1) Solutions containing various phosphodiesterase (types I, II and III) isozymes were purified from rat heart muscle cells in the following manner. Under ether anesthesia, Wistar rat was subjected to thoracotomy to excise the heart. After removing blood by perfusion with physiological saline supplemented with heparin (1 unit/ml), the heart was finely chopped with scissors. This was suspended in buffer A (20 mM Bis-Tris, 5 mM dithioerythritol, 2 mM EGTA and 50 mM sodium acetate, pH 6.5) containing a protease inhibitor (50 μM phenyl-methyl-sulfonyl-fluoride, 5 μM pepstatin A, 40 μM leupeptin, 20 μM aprotinin or 2 mM benzamidine) and then the cells were disrupted using polytron and sonicator and subjected to ultracentrifugation (4° C., 100,000×g, 60 minutes) to give a soluble fraction.
(§2) 2) Solutions containing various phosphodiesterase isozymes were obtained from the thus obtained soluble fraction in the following manner. The thus, obtained soluble fraction was applied to a column of 1.6×10.0 cm packed with Q Sepharose which had been equilibrated with buffer A. Next, said column was washed with 300 ml of buffer A to remove non-absorbed protein. Phosphodiesterase was eluted with 200 ml of buffer A having 0.05 to 1.25M linear gradient of sodium acetate to collect about 40 fractions each containing 5.0 ml eluate. Each fraction was checked for cAMP- and cGMP-metabolizing phosphodiesterase activities. Of these fractions, a fraction having only cAMP-metabolizing activity and showing disappearance of the metabolizing activity by 0.1 μM cilostamide (a type III phosphodiesterase selective inhibitor) was used as the type III phosphodiesterase. […] These fractions were separately collected to be used as phosphodiesterase (types I, II and III) stock solutions for the examination of selectivity. p1 3) A solution containing type V phosphodiesterase was prepared from peripheral blood of a healthy person in the following manner. A 200 ml portion of physiological saline supplemented with dextran (3%) was added to 500 ml of heparinized peripheral blood and incubated at 37° C. for 40 minutes to effect precipitation of erythrocytes. The supernatant fluid after precipitation of erythrocytes was recovered and centrifuged once, and the resulting precipitate was suspended in buffer B (140 mM NaCl, 5 mM KCl, 5 mm glucose and 10 mM HEPES, pH 7.4), overlaid on a solution for density gradient centrifugation use (Ficoll solution) and then centrifuged at room temperature for 40 minutes at 450×g, thereby separating monocyte fraction and granulocyte fraction. The granulocyte fraction was washed once with buffer C (140 mM NaCl, 5 mM KCl, 1 mM CaCl2, 1 mM MgCl2, 5 mM glucose and 10 mM HEPES, pH 7.4) and suspended in buffer D (20 mM Bis-Tris, 5 mM dithioerythritol, 2 mM EGTA and 50 mM sodium acetate, pH 6.5) containing a protease inhibitor (40 μM leupeptin, 5 μM pepstatin A, 20 μM aprotinin, 50 μM phenyl-methyl-sulfonyl-fluoride or 2 mM benzamidine) and then the cells were disrupted using polytron and sonicator and subjected to ultracentrifugation (4° C., 100,000×g, 60 minutes) to give a soluble fraction.
(§3) (B) Inhibitory activities were measured using the thus obtained stock solutions of various phosphodiesterase isozymes.
(§4) 1) A predetermined amount of each compound to be tested was subjected to 10 minutes of reaction at 30° C. in a reaction mixture containing 40 mM Tris-HCl (pH 8.0), 5 mM MgCl2, 4 mM 2-mercaptoethanol, 10 μM rolipram (a type IV phosphodiesterase selective inhibitor), 1 μM cAMP, 10 nM ^3 H-cAMP (in the case of type V phosphodiesterase, 1 μM cAMP and 10 nM ^3 H-cAMP are replaced by 1 μM cGMP and 100 nM ^3 H-cGMP) and each of the isozyme stock solutions. […]

[2] = biological target: T2, type V phosphodiesterase (Homo sapiens, UniProt O76074); assay: Phosphodiesterase inhibition activity (in vitro), Type V; type: biochemical, human (peripheral blood of a healthy person); conditions: 1 μM cGMP
T2 construct: from tissue; host or cells: human peripheral blood granulocyte fraction, soluble, Q Sepharose
Description: as §1, §2
4) The thus obtained soluble fraction was applied to a column of 1.6×10 cm packed with Q Sepharose which had been equilibrated with buffer D. Next, the column was washed with 120 ml of buffer D to remove non-absorbed protein. Phosphodiesterase was eluted with 300 ml of buffer D having 0.05 to 1.25M linear gradient of sodium acetate to collect fractions each containing 5.0 ml eluate. Each fraction was checked for cAMP- and cGMP-metabolizing phosphodiesterase activities. Fractions having only cGMP metabolizing activity were collected to be used as the type V phosphodiesterase stock solution.
as §3
as §4, with “solutions. After completion of the reaction, the reaction mixture was boiled at 90° C. for 1 minute, ice-cooled, mixed with 1 unit of 5'-nucleotidase and then subjected to 10 minutes of reaction at 30° C., and the reaction was stopped by adding 1 ml of methanol.” for “solutions.”

CCc1cc(C)c2c(-c3cccc(Cl)c3)cc(=O)n(CC)c2n1 [Example 39, 4-(3-Chlorophenyl)-1,7-diethyl-5-methyl-1,8-naphthyridin-2(1H)-one]
IC50 [1]: > 3 µM
IC50 [2]: 1.05 µM
